Measurements as given in patent publication US11001562B2, “Near-infrared fluorescent nerve contrast agents and methods of use thereof” (Beth Israel Deaconess Medical Center, priority 2013, dated 2021).
“Also recorded” adds a separate entry of the source.

Assays:
[1] = tested on: rat brachial plexus and sciatic nerves; assay: In vivo nerve-specificity screening with FLARE imaging; settings: for nerve-specific fluorescence signal in vivo: SD rats, 2 mg/kg (1 μmol) iv, 4 h after injection, brachial plexus and sciatic nerve
Source text: The dual-NIR channel FLARE^a imaging system has been described in detail previously (26-28). In this study, a 670 nm excitation was used at a fluence rate of 4 mW/cm^2, with white light (400-650 nm) at 40,000 1×. Color and NIR fluorescence images were acquired simultaneously with custom software at rates up to 15 Hz over a 15 cm diameter field of view. A pseudo-colored lime green was used for NIR fluorescence in the color-NIR merged images. The imaging system was positioned at a distance of 18 inches from the surgical field.
Initial in vivo screening occurred in rats based on our previous study of BMB (Supplementary Methods) (25). For kinetic and dose-response studies, 50-400 nmol (0.8-6.3 mg/kg) of Oxazine 4 was injected intravenously into mice and measurements taken over 24 h. Control images were acquired prior to injecting NIR fluorophores. The fluorescence signal in nervous tissues and signal-to-background ratio (SBR) compared to neighboring muscle (Mu) were obtained over the period of imaging. For the large animal study, the optimal dose found in mice (200-400 nmol per mouse) was used in pigs by scaling to body surface area (29, 30).
Sprague-Dawley (SD) male rats weighing 250-300 g were purchased from Charles River Laboratories (Wilmington, Mass.). BMB, Oxazine 1, Oxazine 4, Oxazine 170, Oxazine 750, and Rhodamine 800 were initially screened to investigate nerve specificity in rats. For the initial screening, we administered a relatively high dose (2 mg/kg; 1 μmol) of each fluorophore intravenously. 4 h after injection, brachial plexus (BP) and sciatic nerve (SN) were imaged using the intraoperative FLARE^a system for in vivo nerve-specific fluorophores screening.

[2] = Optical property measurements (absorbance and fluorescence spectra); type: physicochemical; settings: 100% FBS with 50 mM HEPES, pH 7.4, 37° C.
Experimental: Absorbance and fluorescence spectra were obtained at a concentration of […] in 100% FBS supplemented with 50 mM HEPES, pH 7.4. B) Optical properties of Oxazine 4 were measured in PBS (pH 7.4), FBS (pH 7.4), MeOH, and DMSO.
Oxazine derivatives were obtained from Fisher Scientific Inc. (Pittsburgh, Pa.) or Sigma-Aldrich (Saint Louis, Mo.), and BMB was synthesized as described previously (25). Optical measurements were performed at 37° C. in phosphate-buffered saline (PBS), pH 7.4 or 100% fetal bovine serum (FBS) buffered with 50 mM HEPES, pH 7.4. Absorbance and fluorescence emission spectra were measured using fiber optic HR2000 absorbance (200-1100 nm) and USB2000FL fluorescence (350-1000 nm) spectrometers (Ocean Optics, Dunedin, Fla.). NIR excitation was provided by a 532 nm green laser pointer (Opcom Inc., Xiamen, China) set to 5 mW and coupled through a […] core diameter, NA 0.22 fiber (Fiberguide Industries, Stirling, N.J.). In silico calculation of the partition coefficient (log D at pH 7.4) was calculated using Marvin and J Chem calculator plugins (ChemAxon, Budapest, Hungary). Chemical similarities were calculated by Instant J Chem 6.04 using “Chemical Hashed Fingerprint” with the Normalized Euclidean dissimilarity screening configuration (ChemAxon).
All optical measurements were performed at 37° C. in phosphate-buffered saline (PBS), pH 7.4, 100% fetal bovine serum (FBS) buffered with 50 mM HEPES, pH 7.4, methanol (MeOH), or dimethyl sulfoxide (DMSO). Absorbance and fluorescence emission spectra of the series of NIR fluorophores were measured using fiber optic HR2000 absorbance (200-1100 nm) and USB2000FL fluorescence (350-1000 nm) spectrometers (Ocean Optics, Dunedin, Fla.). Excitation light was provided by a 532 nm green laser pointer (Opcom Inc., Xiamen, China) set to 5 mW and coupled through a 300 μm core diameter, NA 0.22 fiber (Fiberguide Industries, Stirling, N.J.). In silico calculation of the partition coefficient (log D at pH 7.4) was calculated using Marvin and J Chem calculator plugins (ChemAxon, Budapest, Hungary).

[3] = tested on: pig sciatic nerve tissue cross sections; assay: Ex vivo nerve-specific fluorophore screening on nerve tissue sections; settings: for nerve-specific fluorescence signal in cross-sectioned nerve: 20 min incubation; for adipose uptake: both ex vivo and in vivo
Experimental: Phase contrast image (top) and fluorescence image (bottom) of nerve tissue sections incubated with 100 μM of test fluorophores are shown. Nerve-specific fluorescence intensity was determined using staining of pig sciatic nerve cut in cross section. Nerve tissue sections were incubated in 30% FBS solutions without (negative control, autofluorescence only) and with each fluorophore. As a positive control, previously reported nerve-specific BMB was used. Shown are phase contrast image (top) and fluorescence image (bottom) of nerve tissue sections incubated with 100 μM of each fluorophore. The control autofluorescence images were taken with equivalent exposure time and normalization. Arrowheads indicate fluorescence signals in nerve bundles. Ad=adipose tissue. Scale bars=200 μm. The SBR of each nerve relative to the neighboring adipose tissue was quantified and labeled as—, SBR<1; +, SBR=1−2; and ++, SBR >2.
Sciatic nerves from female Yorkshire pigs were harvested, fixed in 2% paraformaldehyde (PFA), and flash frozen in optimal cutting temperature (OCT) compound using liquid nitrogen. Nerve tissues were cut in cross section using a cryostat at […] thickness onto positively charge glass slides. Tissue sections were washed once with phosphate buffered saline (PBS) for 2 min to remove residual OCT. The tissue was then fixed to the slide with 2% PFA for 15 min, followed by washing with PBS (3×5 min). A formulation was previously developed for intravenous (IV) administration and was used in the current study to incubate the fluorophores with the nerve tissue (25). All fluorophores were mixed from the 100 mM stock solution into the IV formulation at 100 µM and incubated with the washed nerve tissue sections at room temperature for 20 min. Additional IV formulation not containing fluorophore was mixed and used to wash each nerve section twice (5 min per wash) following incubation with the formulated fluorophore. The nerve section was then washed an additional 2 times with PBS (5 min per each), after which coverslips were mounted using Fluoromount-G (Southern Biotech, Birmingham, Ala.).
NIR fluorescence microscopy for ex vivo nerve tissue slides was performed on a Nikon Eclipse TE300 microscope system as previously described (12, 19, 25). The microscope was equipped with a 100 W mercury light source, NIR-compatible optics, and a NIR-compatible 10× Plan Fluor objective lens and a 100× Plan Apo oil immersion objective lens (Nikon, Melville, N.Y.). Images were acquired on an Orca-AG (Hamamatsu, Bridgewater, N.J.). Image acquisition and analysis was performed using IPLab software (Scanalytics, Fairfax, Va.). A custom filter set (Chroma Technology Corporation, Brattleboro, Vt.) composed of a 650±22 nm excitation filter, a 675 nm dichroic mirror, and an 710±25 nm emission filter were used to detect Oxazine derivatives and Rhodamine 800 signals in the nerve tissue slides. For BMB, a mercury light source was passed through a 360±25 nm BP excitation filter, a 400 nm LP beam splitter, and a 550±50 nm emission filter.

[4] = 100 μM fluorophore, pig sciatic nerve sections
[5] = comparison of structures in discussion

Structure (SMILES)	Abs (peak absorbance) [2] [nm]	Em (peak emission) [2] [nm]	λ (extinction coefficient) [2]	nerve-specific fluorescence signal in vivo [1]	nerve-specific fluorescence signal in cross-sectioned nerve [3, 4]	SBR of nerve relative to neighboring adipose tissue [3, 4]	adipose fluorescence signal [3, 4]	adipose signal (discussion summary) [1, 5]	nerve signal (discussion summary) [1, 5]	adipose uptake [3]	uptake in / targeting of nerve ([1]; summary statement related to log D)
COc1cc(/C=C/c2ccc(N)cc2)ccc1/C=C/c1ccc(N)cc1 [BMB, reference compound]	397	498	52,800 M^−1cm^−1	nerve highlighting fluorophores	relatively high fluorescence signal in the nerve	< 1	even higher than the target signal	–	–	–	–
CCN(CC)c1ccc2nc3ccc(=[N+](CC)CC)cc-3oc2c1 [Oxazine 1]	655	670	196,000 M^−1cm^−1	weak signal in the vicinity of nerve	did not show any nerve-specific fluorescence signal	–	adipose-specific fluorescence signal only	high adipose	low nerve signal	–	–
CC/N=c1/cc2oc3cc(NCC)c(C)cc3nc-2c2ccccc12 [Oxazine 170]	625	650	69,000 M^−1cm^−1	nerve highlighting fluorophores	weak nerve-specific fluorescence signal	–	–	–	–	strong adipose uptake; also recorded: high accumulation in adipose tissue	–

More lines, main results first:

Abs (peak absorbance) [2] [nm]	Em (peak emission) [2] [nm]	λ (extinction coefficient) [2]	Structure (SMILES)	nerve-specific fluorescence signal in vivo [1]	nerve-specific fluorescence signal in cross-sectioned nerve [3, 4]	SBR of nerve relative to neighboring adipose tissue [3, 4]	adipose fluorescence signal [3, 4]	adipose signal (discussion summary) [1, 5]	nerve signal (discussion summary) [1, 5]	adipose uptake [3]	uptake in / targeting of nerve ([1]; summary statement related to log D)
676	684	44,000 M^−1cm^−1	CC/N=c1/cc2oc3c4c5c(cc3nc-2c2ccccc12)CCCN5CCC4 [Oxazine 750]	–	strong fluorescence signal throughout the cross-sectioned nerve	–	–	–	–	strong adipose uptake	–
697	710	68,000 M^−1cm^−1	N#CC1=c2cc3c4c(c2Oc2c1cc1c5c2CCCN5CCC1)CCC[N+]=4CCC3 [Rhodamine 800]	–	strong fluorescence signal throughout the cross-sectioned nerve	–	–	–	–	–	low and low targeting affinity to the nerve
